From US20190233884A1 (University of Southern California, priority 2016, published 2019)

System: patients with refractory metastatic colorectal cancer (mCRC)
Assay: PFS, OS and disease control in the testing (validation) cohort of refractory mCRC patients receiving TAS-102 (n=129, Italy), by baseline characteristics, SNP genotype and toxicity
Format: in vivo, human
Conditions: for OS HR (95% CI)‡ / PFS HR (95% CI) ‡: multivariable; for Disease Control Rate: PD / Disease Control Rate: SD: patients, n (%); for Disease Control Rate PD / Disease Control Rate SD / Overall Survival Median, months (95% CI) / Progression-free Survival Median, months (95% CI) / Overall Survival HR (95% CI) multivariate / Overall Survival HR (95% CI) univariate / Progression-free Survival HR (95% CI) multivariate / Progression-free Survival HR (95% CI) univariate / OS / PFS: testing cohort
Experimental: All patients underwent the treatment in salvage-line setting. […]
(§1) Genomic DNA was extracted from peripheral whole blood in patients of all cohorts using the QIAmp Kit (Qiagen, Valencia, Calif., USA) according to the manufacturer's protocol (www.qiagen.com). The candidate SNPs were genotyped using PCR-based direct DNA sequence analysis by ABI 3100A Capillary Genetic Analyzer and Sequencing Scanner v1.0 (Applied Biosystems). Amplification of extracted DNA was carried out using both forward and reverse primers for each gene polymorphism as shown in Table 1. […] The investigators analyzing SNPs were blinded to the clinical data of the study patients.
The primary endpoint in this study was progression-free survival (PFS), and the secondary endpoints were overall survival (OS) and disease control rate (DCR). PFS was calculated from the date of starting treatment to the first observation of disease progression or death from any cause. If a patient had no disease progression or death, PFS was censored at the date of last follow up. OS was calculated from the date of starting treatment until the date of death from any cause or the date of the last follow-up, at which point OS was censored. The disease control rate (DCR) was defined as the proportion of patients who achieved a stable disease (SD) or […] according to RECISTv1.1. Chi-square test was used to examine the difference in baseline patient characteristics among the three cohorts. Allelic distribution of all SNPs by ethnicity for deviation from Hardy-Weinberg equilibrium and the allelic frequencies of SNPs were tested using the Chi-square tests with one degree of freedom. The associations between candidate SNPs and disease control, and toxicities were examined using contingency tables and Fisher's exact test. The associations of SNPs with PFS and OS were analysed using Kaplan-Meier curves and the log-rank test. Because the true mode of inheritance of candidate SNPs was not established yet, a codominant or dominant genetic model if appropriate was considered.
All patients underwent the treatment in salvage-line setting. […] In all patients, adverse events were graded according to the Common Terminology Criteria for Adverse Events, version 4.0. […]
as §1, with “tested” for “genotyped”, “Biosystems).” for “Biosystems). Amplification of extracted DNA was carried out using both forward and reverse primers for each gene polymorphism as shown in Table 1.”, “data.” for “data of the study patients.”
The primary endpoint in this study was progression-free survival (PFS), and the secondary endpoints were overall survival (OS) and disease control rate (DCR).

[1] = ATR rs2227928 A/A vs G/G, univariate
[2] = ATR rs2227928 Any A vs G/G, univariate
[3] = ATR rs2227928 G/A vs G/G, univariate
[4] = Pin1 rs2233678 G/C and C/C grouped together
[5] = Pin1 rs2233678 G/C and C/C grouped vs G/G
[6] = Pin1 rs2233678 G/C and C/C grouped vs G/G, univariate
[7] = Validation cohort, Neutropenia grade <3
[8] = Validation cohort, Neutropenia grade ≥3 vs <3, univariate
[9] = hENT1 + OCT2/MATE1 classification: Fair
[10] = hENT1 + OCT2/MATE1 classification: Good or Excellent
[11] = hENT1 + OCT2/MATE1 classification: Poor

## Trifluridine/tipiracil [TAS-102]
ATR rs2227928 A/A
  PFS median, months (95% CI): 2.4 months
  Disease Control Rate: PD: 14 (56%)
  Disease Control Rate: SD: 11 (44%)
ATR rs2227928 A/A vs G/G
  OS HR (95% CI)‡: 1.32
  PFS HR (95% CI) ‡: 1.03
[1]
  OS HR (95% CI)†: 0.94
  PFS HR (95% CI) †: 0.79
ATR rs2227928 Any A
  OS median, months (95% CI): 5.5 months
  PFS median, months (95% CI): 2.0 months
  Disease Control Rate: PD: 64 (72%)
  Disease Control Rate: SD: 25 (28%)
ATR rs2227928 Any A vs G/G
  OS HR (95% CI)‡: 1.35
  PFS HR (95% CI) ‡: 1.33
[2]
  OS HR (95% CI)†: 1.12
  PFS HR (95% CI) †: 1.11
ATR rs2227928 G/A
  OS median, months (95% CI): 5.4 months
  PFS median, months (95% CI): 2.0 months
  Disease Control Rate: PD: 50 (78%)
  Disease Control Rate: SD: 14 (22%)
ATR rs2227928 G/A vs G/G
  OS HR (95% CI)‡: 1.36
  PFS HR (95% CI) ‡: 1.45
[3]
  OS HR (95% CI)†: 1.20
  PFS HR (95% CI) †: 1.26
ATR rs2227928 G/G
  PFS median, months (95% CI): 2.1 months
  Disease Control Rate: PD: 27 (69%)
  Disease Control Rate: SD: 12 (31%)
[4]
  OS median, months (95% CI): 5.4 months
  PFS median, months (95% CI): 2.0 months
  Disease Control Rate: PD: 26 (70%)
  Disease Control Rate: SD: 11 (30%)
[5]
  OS HR (95% CI)‡: 0.97
  PFS HR (95% CI) ‡: 1.18
[6]
  OS HR (95% CI)†: 0.91
  PFS HR (95% CI) †: 1.00
Pin1 rs2233678 G/G
  OS median, months (95% CI): 5.8 months
  PFS median, months (95% CI): 2.0 months
  Disease Control Rate: PD: 65 (71%)
  Disease Control Rate: SD: 26 (29%)
[7]
  OS median, months (95% CI): 3.7 (3.3, 5.1) months
  PFS median, months (95% CI): 1.9 (1.7, 1.9) months
Validation cohort, Neutropenia grade ≥3
  PFS median, months (95% CI): 2.3 (2.0, 3.7) months
[8]
  OS HR (95% CI): 0.21 (0.10, 0.44)
  PFS HR (95% CI): 0.50 (0.32, 0.77)
MATE1_OCT019 Good
  Disease Control Rate PD: 63 (70%)
  Disease Control Rate SD: 27 (30%)
  Overall Survival Median, months (95% CI): 5.4 (4.1, 9.0+) months
  Progression-free Survival Median, months (95% CI): 2.0 (1.9, 2.3) months
MATE1_OCT019 Good vs Poor
  Overall Survival HR (95% CI) multivariate: 1.12 (0.59, 2.10)
  Overall Survival HR (95% CI) univariate: 1.18 (0.64, 2.17)
  Progression-free Survival HR (95% CI) multivariate: 0.91 (0.59, 1.42)
  Progression-free Survival HR (95% CI) univariate: 0.94 (0.62, 1.43)
MATE1_OCT019 Poor
  Disease Control Rate PD: 28 (74%)
  Disease Control Rate SD: 10 (26%)
  Progression-free Survival Median, months (95% CI): 2.0 (1.8, 2.1) months
MATE1 rs2289659 A/A
  Disease Control Rate PD: 20 (74%)
  Disease Control Rate SD: 7 (26%)
  Progression-free Survival Median, months (95% CI): 2.0 (1.7, 2.3) months
MATE1 rs2289659 A/A vs G/G
  Overall Survival HR (95% CI) multivariate: 1.42 (0.61, 3.32)
  Overall Survival HR (95% CI) univariate: 1.13 (0.50, 2.58)
  Progression-free Survival HR (95% CI) multivariate: 1.11 (0.63, 1.96)
  Progression-free Survival HR (95% CI) univariate: 1.01 (0.58, 1.74)
MATE1 rs2289659 Any A
  Disease Control Rate PD: 64 (70%)
  Disease Control Rate SD: 27 (30%)
  Overall Survival Median, months (95% CI): 5.3 (3.9, 8.8+) months
  Progression-free Survival Median, months (95% CI): 2.0 (1.9, 2.1) months
MATE1 rs2289659 Any A vs G/G
  Overall Survival HR (95% CI) multivariate: 1.60 (0.85, 3.04)
  Overall Survival HR (95% CI) univariate: 1.42 (0.76, 2.64)
  Progression-free Survival HR (95% CI) multivariate: 1.14 (0.74, 1.75)
  Progression-free Survival HR (95% CI) univariate: 1.03 (0.68, 1.58)
MATE1 rs2289659 G/A
  Disease Control Rate PD: 44 (69%)
  Disease Control Rate SD: 20 (31%)
  Overall Survival Median, months (95% CI): 4.6 (3.7, 8.8+) months
  Progression-free Survival Median, months (95% CI): 2.0 (1.8, 2.3) months
MATE1 rs2289659 G/A vs G/G
  Overall Survival HR (95% CI) multivariate: 1.67 (0.56, 3.25)
  Overall Survival HR (95% CI) univariate: 1.55 (0.81, 2.96)
  Progression-free Survival HR (95% CI) multivariate: 1.15 (0.73, 1.53)
  Progression-free Survival HR (95% CI) univariate: 1.04 (0.66, 1.64)
MATE1 rs2289659 G/G
  Disease Control Rate PD: 27 (73%)
  Disease Control Rate SD: 10 (27%)
  Overall Survival Median, months (95% CI): 9.0 (4.4, 9.0+) months
  Progression-free Survival Median, months (95% CI): 1.9 (1.9, 2.4) months
OCT2 rs316019 C/A
  Disease Control Rate PD: 21 (68%)
  Disease Control Rate SD: 10 (32%)
  Overall Survival Median, months (95% CI): 4.6 (3.6, 7.1+) months
  Progression-free Survival Median, months (95% CI): 1.9 (1.7, 2.4) months
OCT2 rs316019 C/A vs C/C
  Overall Survival HR (95% CI) multivariate: 1.00 (0.53, 1.89)
  Overall Survival HR (95% CI) univariate: 1.19 (0.64, 2.19)
  Progression-free Survival HR (95% CI) multivariate: 1.28 (0.79, 2.07)
  Progression-free Survival HR (95% CI) univariate: 1.12 (0.72, 1.76)
OCT2 rs316019 C/C
  Disease Control Rate PD: 70 (72%)
  Disease Control Rate SD: 27 (28%)
  Overall Survival Median, months (95% CI): 5.5 (4.7, 9.0+) months
  Progression-free Survival Median, months (95% CI): 2.0 (1.9, 2.3) months
Adjusted for age group, liver metastasis, ECOG performance status, previous anti-EGFR, OCT2 rs316000 A/G vs A/A
  Overall Survival HR (95% CI) multivariate: 0.66 (0.36, 1.23)
Adjusted for age group, liver metastasis, ECOG performance status, previous anti-EGFR, OCT2 rs316000 Any G vs A/A
  Overall Survival HR (95% CI) multivariate: 0.66 (0.36, 1.21)
Adjusted for age group, liver metastasis, ECOG performance status, previous anti-EGFR, OCT2 rs316000 G/G vs A/A
  Overall Survival HR (95% CI) multivariate: 0.64 (0.08, 4.91)
Genotype vs A/A, OCT2 rs316000 A/G vs A/A
  Overall Survival HR (95% CI) univariate: 0.87 (0.48, 1.57)
Genotype vs A/A, OCT2 rs316000 Any G vs A/A
  Overall Survival HR (95% CI) univariate: 0.83 (0.46, 1.47)
Genotype vs A/A, OCT2 rs316000 G/G vs A/A
  Overall Survival HR (95% CI) univariate: 0.45 (0.06, 3.28)
[9]
  OS: 4.0 months
  PFS: 1.9 months
[10]
  OS: 9.0 months
  PFS: 2.1 months
[11]
  OS: 3.6 months
  PFS: 2.0 months
hENT1 rs750370 A/A
  Disease Control Rate PD: 36 (80%)
